Measurements from the supplement of paper PMC8149375.

Legend:
Conditions in all cases: treatment: drug alone; 5 days
[1] = system: 769-P; assay: GI50, drug alone; higher = less potent
Protocol: (§1)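 Primary HTS: 8 RCC cell lines treated with 8 doses (up to 10 uM) of each library drug alone for 5 days; viability read by CellTiter-Glo and normalised to DMSO. GI50 was fitted with XLfit (4-parameter), AUC is the area under the dose-response curve, and minimum viability is the lowest fraction of DMSO viability across doses.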

[2] = system: 786-O; assay: GI50, drug alone; higher = less potent
Protocol: as §1

[3] = system: A498; assay: GI50, drug alone; higher = less potent
Protocol: as §1

[4] = system: ACHN; assay: GI50, drug alone; higher = less potent
Protocol: as §1

[5] = system: CAKI-1; assay: GI50, drug alone; higher = less potent
Protocol: as §1

[6] = system: SN12C; assay: GI50, drug alone; higher = less potent
Protocol: as §1

[7] = system: TK-10; assay: GI50, drug alone; higher = less potent
Protocol: as §1

[8] = system: UO-31; assay: GI50, drug alone; higher = less potent
Protocol: as §1

[9] = system: 769-P; assay: minimum viability across doses, drug alone, relative to DMSO (fraction); higher = less growth inhibition
Protocol: as §1

[10] = system: 786-O; assay: as above
Protocol: as §1

[11] = system: A498; assay: as above
Protocol: as §1

[12] = system: ACHN; assay: as above
Protocol: as §1

[13] = system: CAKI-1; assay: as above
Protocol: as §1

[14] = system: SN12C; assay: as above
Protocol: as §1

[15] = system: TK-10; assay: as above
Protocol: as §1

[16] = system: UO-31; assay: as above
Protocol: as §1

[17] = system: 769-P; assay: AUC of dose-response viability curve, drug alone (arbitrary (AUC of normalised viability)); higher = less growth inhibition
Protocol: as §1

[18] = system: 786-O; assay: as above
Protocol: as §1

[19] = system: A498; assay: as above
Protocol: as §1

[20] = system: ACHN; assay: as above
Protocol: as §1

[21] = system: CAKI-1; assay: as above
Protocol: as §1

[22] = system: SN12C; assay: as above
Protocol: as §1

[23] = system: TK-10; assay: as above
Protocol: as §1

[24] = system: UO-31; assay: as above
Protocol: as §1

For `C[C@@H](Oc1cc(-n2cnc3ccc(CN4CCN(C)CC4)cc32)sc1C(N)=O)c1ccccc1C(F)(F)F`, the “GI50, drug alone” value [1] was 69.7 nM, the “GI50, drug alone” value [2] was 19.4 nM and the “GI50, drug alone” value [3] was > 10 µM. The “GI50, drug alone” value [4] was 89.1 nM, the “GI50, drug alone” value [5] was 153 nM and the “GI50, drug alone” value [6] was 0.12 µM. For the same compound, the “GI50, drug alone” value [7] was 1340 nM, the “GI50, drug alone” value [8] was 0.0449 µM and the “minimum viability across doses” value [9] was 0.0562. The “minimum viability across doses” value [10] was 0.00395, the “minimum viability across doses” value [11] was 0.599 and the “minimum viability across doses” value [12] was 0.172. The “minimum viability across doses” value [13] was 0.17, the “minimum viability across doses” value [14] was 0.234 and the “minimum viability across doses” value [15] was 0.235. For the same compound, the “minimum viability across doses” value [16] was 0.00269, the “AUC of dose-response viability curve” value [17] was 1.49 and the “AUC of dose-response viability curve” value [18] was 0.807. For the same compound, the “AUC of dose-response viability curve” value [19] was 2.98, the “AUC of dose-response viability curve” value [20] was 1.75 and the “AUC of dose-response viability curve” value [21] was 1.77. The “AUC of dose-response viability curve” value [22] was 1.92, the “AUC of dose-response viability curve” value [23] was 2.36 and the “AUC of dose-response viability curve” value [24] was 1.4.
For `CS(=O)(=O)O.O=C(Nc1cccc(Cl)c1)Nc1ncc(CCNc2ncnc3ccsc23)s1` [SNS-314], the “GI50, drug alone” value [1] was 506 nM, the “GI50, drug alone” value [2] was 50.4 nM and the “GI50, drug alone” value [3] was > 10 µM. The “GI50, drug alone” value [4] was 168 nM, the “GI50, drug alone” value [5] was 36.1 nM and the “GI50, drug alone” value [6] was 1.75 µM. For the same compound, the “GI50, drug alone” value [7] was > 10000 nM, the “GI50, drug alone” value [8] was > 10 µM and the “minimum viability across doses” value [9] was 0.343. For the same compound, the “minimum viability across doses” value [10] was 0.159, the “minimum viability across doses” value [11] was 0.637 and the “minimum viability across doses” value [12] was 0.17. For the same compound, the “minimum viability across doses” value [13] was 0.172, the “minimum viability across doses” value [14] was 0.245 and the “minimum viability across doses” value [15] was 0.536. The “minimum viability across doses” value [16] was 0.891, the “AUC of dose-response viability curve” value [17] was 2.2 and the “AUC of dose-response viability curve” value [18] was 1.76. The “AUC of dose-response viability curve” value [19] was 4.02, the “AUC of dose-response viability curve” value [20] was 1.77 and the “AUC of dose-response viability curve” value [21] was 1.36. The “AUC of dose-response viability curve” value [22] was 2.54, the “AUC of dose-response viability curve” value [23] was 2.73 and the “AUC of dose-response viability curve” value [24] was 4.36.
For `COc1cc(Nc2ncc3c(n2)-c2ccc(Cl)cc2C(c2c(F)cccc2OC)=NC3)ccc1C(=O)O` [MLN8237 (Alisertib)], the “GI50, drug alone” value [1] was 888 nM, the “GI50, drug alone” value [2] was 71.1 nM and the “GI50, drug alone” value [3] was > 10 µM. The “GI50, drug alone” value [4] was 207 nM, the “GI50, drug alone” value [5] was 670 nM and the “GI50, drug alone” value [6] was 3.14 µM. For the same compound, the “GI50, drug alone” value [7] was 7870 nM, the “GI50, drug alone” value [8] was > 10 µM and the “minimum viability across doses” value [9] was 0.316. The “minimum viability across doses” value [10] was 0.0512, the “minimum viability across doses” value [11] was 0.569 and the “minimum viability across doses” value [12] was 0.194. The “minimum viability across doses” value [13] was 0.221, the “minimum viability across doses” value [14] was 0.458 and the “minimum viability across doses” value [15] was 0.492. For the same compound, the “minimum viability across doses” value [16] was 0.531, the “AUC of dose-response viability curve” value [17] was 2.44 and the “AUC of dose-response viability curve” value [18] was 1.47. For the same compound, the “AUC of dose-response viability curve” value [19] was 3.27, the “AUC of dose-response viability curve” value [20] was 1.81 and the “AUC of dose-response viability curve” value [21] was 2.31. The “AUC of dose-response viability curve” value [22] was 2.85, the “AUC of dose-response viability curve” value [23] was 2.78 and the “AUC of dose-response viability curve” value [24] was 3.14.
With `N#Cc1c(O)c2c(-c3ccc(-c4ccccc4O)cc3)csc2[nH]c1=O` the “GI50, drug alone” value [1] was > 10000 nM, the “GI50, drug alone” value [2] was > 10000 nM and the “GI50, drug alone” value [3] was > 10 µM. The “GI50, drug alone” value [4] was > 10000 nM, the “GI50, drug alone” value [5] was > 10000 nM and the “GI50, drug alone” value [6] was > 10 µM. The “GI50, drug alone” value [7] was > 10000 nM, the “GI50, drug alone” value [8] was > 10 µM and the “minimum viability across doses” value [9] was 0.963. The “minimum viability across doses” value [10] was 0.823, the “minimum viability across doses” value [11] was 0.9 and the “minimum viability across doses” value [12] was 0.904. For the same compound, the “minimum viability across doses” value [13] was 0.977, the “minimum viability across doses” value [14] was 0.868 and the “minimum viability across doses” value [15] was 0.929. The “minimum viability across doses” value [16] was 0.948, the “AUC of dose-response viability curve” value [17] was 3.7 and the “AUC of dose-response viability curve” value [18] was 3.47. The “AUC of dose-response viability curve” value [19] was 3.53, the “AUC of dose-response viability curve” value [20] was 3.45 and the “AUC of dose-response viability curve” value [21] was 3.65. The “AUC of dose-response viability curve” value [22] was 3.39, the “AUC of dose-response viability curve” value [23] was 3.6 and the “AUC of dose-response viability curve” value [24] was 4.14.
`C=CC(=O)Nc1cccc(Oc2nc(Nc3ccc(N4CCN(C)CC4)cc3OC)ncc2Cl)c1` [WZ4002] was tested, and the “GI50, drug alone” value [1] was > 10000 nM, the “GI50, drug alone” value [2] was > 10000 nM and the “GI50, drug alone” value [3] was > 10 µM. For the same compound, the “GI50, drug alone” value [4] was 845 nM, the “GI50, drug alone” value [5] was 3380 nM and the “GI50, drug alone” value [6] was 4.51 µM. For the same compound, the “GI50, drug alone” value [7] was 1190 nM, the “GI50, drug alone” value [8] was 8.03 µM and the “minimum viability across doses” value [9] was 0.576. For the same compound, the “minimum viability across doses” value [10] was 0.547, the “minimum viability across doses” value [11] was 0.796 and the “minimum viability across doses” value [12] was 0.0645. For the same compound, the “minimum viability across doses” value [13] was 0.385, the “minimum viability across doses” value [14] was 0.151 and the “minimum viability across doses” value [15] was 0.0574. The “minimum viability across doses” value [16] was 0.0165, the “AUC of dose-response viability curve” value [17] was 2.97 and the “AUC of dose-response viability curve” value [18] was 2.59. For the same compound, the “AUC of dose-response viability curve” value [19] was 4.01, the “AUC of dose-response viability curve” value [20] was 2.38 and the “AUC of dose-response viability curve” value [21] was 2.96. For the same compound, the “AUC of dose-response viability curve” value [22] was 2.87, the “AUC of dose-response viability curve” value [23] was 2.42 and the “AUC of dose-response viability curve” value [24] was 3.99.
In the case of `O=C(NOCC(O)CO)c1cc(Br)c(F)c(F)c1Nc1ccc(I)cc1F` (centres undefined), the “GI50, drug alone” value [1] is reported as 4980 nM, the “GI50, drug alone” value [2] is reported as 448 nM and the “GI50, drug alone” value [3] is reported as > 10 µM. For the same compound, the “GI50, drug alone” value [4] was 1990 nM, the “GI50, drug alone” value [5] was 1250 nM and the “GI50, drug alone” value [6] was > 10 µM. The “GI50, drug alone” value [7] was 2840 nM, the “GI50, drug alone” value [8] was > 10 µM and the “minimum viability across doses” value [9] was 0.427. For the same compound, the “minimum viability across doses” value [10] was 0.263, the “minimum viability across doses” value [11] was 0.89 and the “minimum viability across doses” value [12] was 0.372. The “minimum viability across doses” value [13] was 0.202, the “minimum viability across doses” value [14] was 0.602 and the “minimum viability across doses” value [15] was 0.419. For the same compound, the “minimum viability across doses” value [16] was 0.816, the “AUC of dose-response viability curve” value [17] was 2.62 and the “AUC of dose-response viability curve” value [18] was 1.94. For the same compound, the “AUC of dose-response viability curve” value [19] was 3.58, the “AUC of dose-response viability curve” value [20] was 2.42 and the “AUC of dose-response viability curve” value [21] was 2.32. For the same compound, the “AUC of dose-response viability curve” value [22] was 2.83, the “AUC of dose-response viability curve” value [23] was 2.4 and the “AUC of dose-response viability curve” value [24] was 3.29.
